Experiment: Free radical inhibiting activity in vitro (DPPH)
Format: biochemical
Details: 50 µM DPPH in ethanol, 30 minutes, room temperature, decrease in OD, solvent control subtracted
Description: A 50 µM solution of 1,1-diphenyl-2-picrylhydrazyl (DPPH) in ethanol is added for 30 minutes at room temperature to a tested sample. The drop in absorbance is then measured and the results are given as the percentage decrease in OD caused by the test compound relative to the solvent used. The tested products are dissolved in ethanol (except product according to Example 7 when DMSO was used); the results (solvent control subtracted) are given as % free radical inhibiting activity as described in table 2.

Molecule	Free radical inhibiting activity (dissolved in DMSO)	Free radical inhibiting activity (dissolved in ethanol)
1,3-bis-butyryloxy-11a-hydroxy-9-(3,5,7-tributyryloxy-4H-1-benzopyran-4-on-2-yl)-5a-(3,4-bisbutyryloxyphenyl)-5,6,11-hexahydro-5,6,11-trioxanaphtacene-12-one [Example 7]	95%	–
CC(=O)Oc1ccccc1C(=O)Oc1cc(O)c2c(=O)c(OC(=O)c3ccccc3OC(C)=O)c(-c3ccc(OC(=O)c4ccccc4OC(C)=O)c(OC(=O)c4ccccc4OC(C)=O)c3)oc2c1 [Example 3, 3,7-bis-(2-acetylsalicyloyloxy)-2-(3,4-bis-(2-acetylsalicyloyloxy)phenyl)-5-hydroxy-chromen-4-one]	–	82%
COc1cc(C=CC(=O)Oc2cc(O)c3c(=O)c(OC(=O)C=Cc4ccc(OCC=C(C)C)c(OC)c4)c(-c4ccc(OC(=O)C=Cc5ccc(OCC=C(C)C)c(OC)c5)c(OC(=O)C=Cc5ccc(OCC=C(C)C)c(OC)c5)c4)oc3c2)ccc1OCC=C(C)C [Example 8, 3-(O-prenylferuloyloxy)-2-(3,4-bis-(O-prenylferuloyloxy)phenyl)-7-(O-prenyl-feruloyloxy)-5-hydroxy-chromen-4-one]	–	75%
O=c1c(O)c(-c2ccc(O)c(O)c2)oc2cc(O)cc(O)c12 [Quercetin]	–	62%

Reference: patent EP2468741A1, “Novel quercetin derivatives, their preparation, pharmaceutical compositions containing them and their use” (Bel/Novamann International s.r.o., priority 2010, dated 2012)
